Where two headings read alike, the source gives them in different places. Values belong to the molecule of their own block, whether it stands above or below them.
Biological target: T1, cloned human dopamine D3 receptors (Homo sapiens, UniProt P35462)
T1 construct: expressed in transfected cells; membrane homogenate
Experiment: [N-Methyl-3H]Spiroperidol binding to cloned human dopamine D3 receptors (Protocol 1)
Summary of the method: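 Radioligand displacement with [N-methyl-3H]spiroperidol used a physiological-salt Tris buffer (0.05 M, pH 7.7; NaCl 120 mM, KCl 5 mM, CaCl2 2 mM, MgCl2 1 mM) and membranes of a high-expressing stable CHO clone carrying human D3. Total ligand concentration came from measured added CPM; 0.1% ascorbic acid was optional for oxidizable compounds.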

[1] = the 23rd table, read-out: D3 Ki
[2] = the 14th table, read-out: D3 Ki
[3] = the 15th table, read-out: D3 Ki
[4] = the 24th table, read-out: D3 Ki
[5] = the 13th table, unit inferred, read-out: D3Ki
[6] = the 16th table, read-out: D3 Ki
[7] = the 21st table, read-out: D3 Ki
[8] = the 18th table, read-out: D3 Ki
[9] = the 22nd table, read-out: D3 Ki
[10] = the 26th table, read-out: D3 Ki

T1 sequence (P35462 whole entry): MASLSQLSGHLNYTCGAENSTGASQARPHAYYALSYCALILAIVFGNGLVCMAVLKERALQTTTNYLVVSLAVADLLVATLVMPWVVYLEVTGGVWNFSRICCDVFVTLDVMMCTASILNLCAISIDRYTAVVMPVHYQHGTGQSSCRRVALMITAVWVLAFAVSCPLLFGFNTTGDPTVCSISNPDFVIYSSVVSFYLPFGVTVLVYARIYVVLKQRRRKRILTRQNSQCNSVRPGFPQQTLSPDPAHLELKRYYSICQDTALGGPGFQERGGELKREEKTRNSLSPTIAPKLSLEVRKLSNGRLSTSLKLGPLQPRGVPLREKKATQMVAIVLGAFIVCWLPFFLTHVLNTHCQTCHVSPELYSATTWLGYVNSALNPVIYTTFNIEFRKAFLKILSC

Compound: O=C(NCCCCCN1CCN(c2csc3cc(C(F)(F)F)ccc23)CC1)c1cc2ccccc2s1 [compound 826773]
Ki (read-out: D3K1): 11 nM
Ki [2]: 11 nM

Compound: O=C(NCCCCCCN1CCN(c2csc3cc(C(F)(F)F)ccc23)CC1)c1cccc(C(F)(F)F)c1 [compound 826752]
Ki (read-out: D3K1): 14 nM
Ki [2]: 14 nM

Compound: O=C(NCCCCN1C2CCC1CC(c1noc3ccccc13)C2)c1cccc(F)c1F (centres unmarked) [compound 816540]
Ki [3]: 225 nM

Compound: O=C(NCCCCN1CCC(c2noc3ccsc23)CC1)c1ccc2ccccc2c1 [compound 81514]
Ki [5]: 191 nM

Compound: CN(C)c1ccc(C(=O)c2ccccc2C(=O)NCCCCN2CCCN(c3csc4cc(F)ccc34)CC2)cc1 [compound 817263]
Ki (Table 2, read-out: D3K1): 331 nM
Ki [6]: 331 nM

Compound: Cc1ccc(C(=O)NCCCCN2C3CCC2CC(c2noc4ccccc24)C3)cc1 (centres unmarked) [compound 816526]
Ki [3]: 375 nM

Compound: NS(=O)(=O)c1ccc(C(=O)NCCCCN2CCCN(c3csc4cc(F)ccc34)CC2)cc1 [compound 817276]
Ki (Table 2, read-out: D3K1): 2.44 nM
Ki [6]: 2.44 nM

Compound: CS(=O)(=O)c1sc(C(=O)NCc2sccc2CN2CCN(c3csc4cc(F)ccc34)CC2)c2c1C=CCC2 [compound 826315]
Ki [8]: 31 nM

Compound: Nc1ccc(C(=O)NCCCCN2CCCN(c3csc4cc(F)ccc34)CC2)cc1 [compound 817258]
Ki (Table 2, read-out: D3K1): 3.13 nM
Ki [6]: 3.13 nM

Compound: O=C(NCCCCN1CCN(c2nn(C(=O)c3ccc(F)cc3)c3ccsc23)CC1)c1ccc(F)cc1 [compound 825148]
Ki [9]: 36.4 nM

Compound: O=C(NCCCCN1CCCN(c2csc3cc(F)ccc23)CC1)c1cc2ccccc2o1 [822226G]
Ki [5]: 0.82 nM

Compound: O=C(NCc1sccc1CN1CCN(c2csc3cc(F)ccc23)CC1)c1cc2ccccc2[nH]1 [compound 826322]
Ki [8]: 296 nM

Compound: O=C(NCCCCN1CCCN(c2csc3cc(C(F)(F)F)ccc23)CC1)c1ccc2nonc2c1 [S980664]
Ki [5]: 6.1 nM

Compound: O=C(NC/C=C\CN1CCN(c2csc3cc(C(F)(F)F)ccc23)CC1)C1CCCC1 [compound 826334]
Ki (read-out: D3K1): 21 nM

Compound: O=C(NCCCCN1CCCN(c2csc3cc(F)ccc23)CC1)c1cccnc1Oc1ccccc1 [S981834]
Ki [5]: 1.1 nM

Compound: O=C(NCCCCCN1CCN(c2csc3cc(F)ccc23)CC1)c1cc2ccccc2[nH]1 [compound 826784]
Ki [2]: 3.28 nM

Compound: O=C(NCCCCN1C2CCC1CC(c1noc3cc(F)ccc13)C2)c1cccc2ccccc12 (centres unmarked) [compound 816330]
Ki [3]: 186 nM

Compound: O=C(NCCCCCN1CCCN(c2csc3cc(F)ccc23)CC1)c1cc2ccccc2s1 [S984494]
Ki [5]: 11.6 nM

Compound: COc1ccc(C(=O)NCc2sccc2CN2CCN(c3csc4cc(F)ccc34)CC2)cc1OC [compound 826305]
Ki [8]: 30 nM

Compound: NS(=O)(=O)c1cc(C(=O)NCCCCN2CCCN(c3csc4cc(F)ccc34)CC2)c(O)c2ccccc12 [compound 817265]
Ki (Table 2, read-out: D3K1): 46 nM
Ki [6]: 46 nM

The next lines start with the values.

Ki [1]: 22.9 nM
Compound: FC(F)(F)c1ccc2c(N3CCN(C[C@@H]4C[C@H]4CN4CCC(n5ccnc5)CC4)CC3)csc2c1 [compound 833349]

Ki [4]: 28.1 nM
Compound: COc1ccc(S(=O)(=O)NCC2CC2CN2CCN(c3csc4cc(C(F)(F)F)ccc34)CC2)cc1 (centres unmarked) [compound 831500]

Ki [7]: 41.3 nM
Compound: COc1ccc2[nH]c(C(=O)NCCCCN3[C@H](C)CN(c4csc5cc(C(F)(F)F)ccc45)C[C@@H]3C)cc2c1 [compound 826951]

Ki [1]: 98 nM
Compound: CC(C)c1ccc(CNCC2CC2CN2CCN(c3csc4cc(C(F)(F)F)ccc34)CC2)cc1 (racemic) [compound 832182]

Ki [7]: 15.3 nM
Compound: COc1ccc2[nH]c(C(=O)NCCCCN3[C@H](C)CN(c4csc5cc(F)ccc45)C[C@@H]3C)cc2c1 [compound 826960]

Ki [10]: 38.5 nM
Compound: OC(CCN1CCC(c2noc3ccsc23)CC1)CN1CCC(Cc2ccccc2)CC1 (centres unmarked) [compound 831944]

Ki [9]: 90.2 nM
Compound: O=C(NCCCCN1CCN(c2noc3ccsc23)CC1)c1ccc(F)cc1 [compound 829674]

Ki [10]: 356 nM
Compound: OC(CCN1CCC(c2noc3ccsc23)CC1)CN1CCOCC1 (centres unmarked) [compound 831940]

Ki [7]: 155 nM
Compound: C[C@@H]1CN(c2csc3cc(C(F)(F)F)ccc23)C[C@H](C)N1CCCCNC(=O)c1cccc(Cl)c1 [compound 827038]

Ki [1]: 227 nM
Compound: FC(F)(F)c1ccc2c(N3CCN(C[C@@H]4C[C@H]4CNCCc4ccccc4)CC3)csc2c1 [compound 832322]

Ki (Table 2, read-out: D3K1): 4.18 nM
Ki [6]: 4.18 nM
Compound: COc1cc(C)c2cc(C(=O)NCCCCN3CCCN(c4csc5cc(F)ccc45)CC3)oc2c1OC [compound 827131]

Ki [4]: 36.3 nM
Compound: O=S(=O)(NCC1CC1CN1CCC(c2noc3ccsc23)CC1)c1ccc(F)cc1 (centres unmarked) [compound 831363]

Ki [4]: 35.1 nM
Compound: O=S(=O)(NC[C@@H]1C[C@H]1CN1CCN(c2csc3cc(C(F)(F)F)ccc23)CC1)c1ccc(F)cc1 (racemic) [compound 831495, 4-Fluoro-N-{2R-[4-(6-trifluoromethyl-benzo[b]thiophen-3-yl)-piperazin-1-ylmenthyl]-1R-cyclopropylmethyl}-benzenesulfonamide]

Ki [7]: 190 nM
Compound: C[C@@H]1CN(c2csc3cc(C(F)(F)F)ccc23)C[C@H](C)N1CCCCNC(=O)c1n[nH]c2ccccc12 [compound 826956]
